This test deals with T1, human neurokinin-1-receptor (NK1R) (Homo sapiens, UniProt P25103).
T1 construct: expressed in transfected cells
As to the kind of experiment: Substance P antagonism assay: 125I-substance P binding to human NK1R expressed in COS or CHO cells. The conditions noted are these: 125I-SP displacement. On the procedure: To express the cloned human neurokinin-1-receptor (NK1R) transiently in COS, the cDNA for the human NK1R was cloned into the expression vector pCDM9 which was derived from pCDM8 (INVITROGEN) by inserting the ampicillin resistance gene (nucleotide 1973 to 2964 from BLUESCRIPT SK+ (trademark, STRATAGENE, La Jolla, Calif., USA)) into the Sac II site. Transfection of 20 ug of the plasmid DNA into 10 million COS cells was achieved by electroporation in 800 μl of transfection buffer (135 mM NaCl, 1.2 mM CaCl2, 1.2 mM MgCl2, 2.4 mM K2 HPO4, 0.6 mM KH2 PO4, 10 mM glucose, 10 mM N-2-hydroxyethyl-piperazine-N'-2-ethane […] (HEPES) pH 7.4) at 260 V and 950 μF using the IBI GENEZAPPER (trademark IBI, New Haven, Conn., USA). The cells were incubated in 10% fetal calf serum, 2 mM glutamine, 100 U/ml penicillin-streptomycin, and 90% DMEM media (GIBCO, Grand Island, N.Y., USA) in 5% CO2 at 37° C. for three days before the binding assay.
To establish a stable cell line expressing cloned human […], the cDNA was subcloned into the vector pRcCMV (INVITROGEN). Transfection of 20 ug of the plasmid DNA into CHO cells was achieved by electroporation in 800 μl of transfection buffer supplemented with 0.625 mg/ml Herring sperm DNA at 300 V and 950 μF using the IBI GENEZAPPER (IBI). The transfected cells were incubated in CHO media [10% fetal calf serum, 100 U/ml penicillin-streptomycin, 2 mM glutamine, 1/500 hypoxanthine-thymidine (ATCC), 90% IMDM media (JRH BIOSCIENCES, Lenexa, Kans. USA), 0.7 mg/ml G418 (GIBCO)] in 5% CO2 at 37° C. until colonies were visible. Each colony was separated and propagated. The cell clone with the highest number of human NK1R was selected for subsequent applications such as drug screening.
The binding assay of human NK1R expressed in either COS or CHO cells is based on the use of ^125 I-substance P (^125 I-SP, from DU PONT, Boston, Mass.) as a radioactively labeled ligand which competes with unlabeled substance P or any other ligand for binding to the human NK1R. Monolayer cell cultures of COS or CHO were dissociated by the non-enzymatic solution (SPECIALTY MEDIA, Lavellette, N.J.) and resuspended in appropriate volume of the binding buffer (50 mM Tris pH 7.5, 5 mM MnCl2, 150 mM NaCl, 0.04 mg/ml bacitracin, 0.004 mg/ml leupeptin, 0.2 mg/ml BSA, 0.01 mM phosphoramidon) such that 200 μl of the cell suspension would give rise to about 10,000 cpm of specific ^125 I-SP binding (approximately 50,000 to 200,000 cells). In the binding assay, 200 μl of cells were added to a tube containing 20 μl of 1.5 to 2.5 nM of ^125 I-SP and 20 μl of unlabeled substance P or any other test compound. The tubes were incubated at 4° C. or at room temperature for 1 hour with gentle shaking. The bound radioactivity was separated from unbound radioactivity by GF/C filter (BRANDEL, Gaithersburg, Md.) which was pre-wetted with 0.1% polyethylenimine. The filter was washed with 3 ml of wash buffer (50 mM Tris pH 7.5, 5 mM MnCl2, 150 mM NaCl) three times and its radioactivity was determined by gamma counter.

pIC50: −log10 of the molar value. Counter-ions that a name gives are not always drawn. Like-named read-outs stand apart in the source and are kept apart here.

T1 sequence (P25103 whole entry): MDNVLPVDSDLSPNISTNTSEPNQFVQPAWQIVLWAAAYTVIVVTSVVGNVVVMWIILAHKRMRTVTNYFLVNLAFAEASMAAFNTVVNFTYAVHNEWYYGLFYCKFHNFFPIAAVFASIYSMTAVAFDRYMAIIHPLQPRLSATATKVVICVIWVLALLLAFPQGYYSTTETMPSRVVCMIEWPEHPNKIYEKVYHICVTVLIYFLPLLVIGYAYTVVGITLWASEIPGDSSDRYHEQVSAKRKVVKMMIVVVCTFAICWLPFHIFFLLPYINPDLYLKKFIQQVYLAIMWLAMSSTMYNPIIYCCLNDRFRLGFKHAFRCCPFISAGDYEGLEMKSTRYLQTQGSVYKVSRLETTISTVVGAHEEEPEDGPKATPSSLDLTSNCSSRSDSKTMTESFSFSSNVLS

In the case of `OC(C=C1C2CCN(CC2)C1Cc1ccccc1)c1cc(C(F)(F)F)cc(C(F)(F)F)c1` (single isomer, unassigned) [15 (DIASTEREOMER B), E-3-[Methylene-(3,5-bistrifluoromethylphenyl)hydroxymethyl]-2-benzyl quinuclidine], the pIC50 (read-out: IC50 @ NK1R) is 8.22.

For `FC(C=C1C2CCN(CC2)C1C(c1ccccc1)c1ccccc1)c1cc(C(F)(F)F)cc(C(F)(F)F)c1` (single isomer, unassigned; isomer a) [Example 10, E-3-[Methylene-2-(3,5-bistrifluoromethyl)fluoromethyl]-2-benzhydrylquinuclidine (Isomer A) oxalate salt], the pIC50 (read-out: IC50 @ NK1R) is 8.30. Still for that read-out and setting: then `Cc1cc(C)cc(C(=O)C=C2C3CCN(CC3)C2C(c2ccccc2)c2ccccc2)c1` (stereo not drawn) [Example 12, E-3-[Methylene-2-keto(3,5-dimethyl)phenyl]-2-benzhydryl quinuclidine], with 6.85. Regarding `OC(C=C1C2CCN(CC2)C1C(c1ccccc1)c1ccccc1)c1cccc(C(F)(F)F)c1` (single isomer, unassigned) [3 (ISOMER A), E-3-[Methylene(3-trifluoromethylphenyl)hydroxymethyl]-2-benzyhydryl quinuclidine], where the note is “IC50 @ NK1R”, the pIC50 was 7.52. Regarding `OC(C=C1C2CCN(CC2)C1Cc1ccccc1)c1cc(C(F)(F)F)cc(C(F)(F)F)c1` (single isomer, unassigned) [15 (DIASTEREOMER A), E-3-[Methylene-(3,5-bistrifluoromethylphenyl)hydroxymethyl]-2-benzyl quinuclidine], under “read-out: IC50 @ NK1R”, the pIC50 is 7.20. In the case of `OC(C=C1C2CCN(CC2)C1C(c1ccccc1)c1ccccc1)c1cccc(C(F)(F)F)c1` (single isomer, unassigned) [3 (ISOMER B), E-3-[Methylene(3-trifluoromethylphenyl)hydroxymethyl]-2-benzyhydryl quinuclidine], under “IC50 @ NK1R”, the pIC50 is 6.96. For the compound `FC(C=C1C2CCN(CC2)C1C(c1ccccc1)c1ccccc1)c1cc(C(F)(F)F)cc(C(F)(F)F)c1` (single isomer, unassigned; isomer b) [Example 11, E-3-[Methylene-2-(3,5-bistrifluoromethyl)fluoromethyl]-2-benzhydrylquinuclidine (Isomer B)], where the note is “read-out: IC50 @ NK1R”, the pIC50 is 8.05. Regarding `C(Cc1ccccc1)=C1C2CCN(CC2)C1C(c1ccccc1)c1ccccc1` (stereo not drawn) [Example 5, E-3-[Methylenebenzyl]-2-benzhydryl quinuclidine], the pIC50 (IC50 @ NK1R) was 6.77. With `OC(C=C1C2CCN(CC2)C1C(c1ccccc1)c1ccccc1)c1cc(C(F)(F)F)cc(C(F)(F)F)c1` (single isomer, unassigned) [9 (ISOMER A), E-3-[Methylene-2-(3,5-bistrifluoromethyl)hydroxymethyl]-2-benzhydrylquinuclidine], under “read-out: IC50 @ NK1R”, the pIC50 is 9.05. Take `OC(C=C1C2CCN(CC2)C1C(c1ccccc1)c1ccccc1)c1ccccc1` (single isomer, unassigned) [4 (ISOMER B), E-3-[Methylene(hydroxymethyl)phenyl]-2-benzhydryl quinuclidine]: the pIC50 (read-out: IC50 @ NK1R) is 6.70. The same measure, in the same setting: then `FC(F)(F)c1cccc(CC=C2C3CCN(CC3)C2C(c2ccccc2)c2ccccc2)c1` (stereo not drawn) [Example 6, E-3-[Methylene(3-trifluoromethyl)benzyl]-2-benzhydryl quinuclidine], with 7.00. The same measure, in the same setting: as for `Cc1cccc(C)c1C(O)C=C1C2CCN(CC2)C1C(c1ccccc1)c1ccccc1` (stereo not drawn) [Example 14, E[3-Methylene(2,6-dimethylphenyl)hydroxymethyl]-2-benzhydryl quinuclidine], the figure is 7.05; as for `O=C(C=C1C2CCN(CC2)C1C(c1ccccc1)c1ccccc1)c1ccccc1` (stereo not drawn) [Example 8, E-3-[Methyleneketophenyl]-2-benzhydrylquinuclidine], 6.72. For the setting “IC50 @ NK1R”, `OC(C=C1C2CCN(CC2)C1C(c1ccccc1)c1ccccc1)c1ccc(F)cc1` (single isomer, unassigned) [2 (ISOMER B), E-[3-[Methylene(4-fluorophenyl)hydroxymethyl]-2-benzhydryl)quinuclidine] gave a pIC50 of 6.71. Compound `COc1ccccc1C(O)C=C1C2CCN(CC2)C1C(c1ccccc1)c1ccccc1` (single isomer, unassigned) [1 (ISOMER A)] had a pIC50 (IC50 @ NK1R) of 7.30. `O=C(C=C1C2CCN(CC2)C1C(c1ccccc1)c1ccccc1)c1cc(C(F)(F)F)cc(C(F)(F)F)c1` (stereo not drawn) [Example 7, E-3-[Methylene(3,5-bistrifluoromethylphenyl)oxo]-2-benzhydryl quinuclidine]: the pIC50 (read-out: IC50 @ NK1R) was below 6.52. The compound `Cc1cc(C)cc(C(O)C=C2C3CCN(CC3)C2C(c2ccccc2)c2ccccc2)c1` (stereo not drawn) [Example 13, E-[3-Methylene(3,5-dimethylphenyl)hydroxymethyl]-2-benzhydryl quinuclidine] had a pIC50 (IC50 @ NK1R) of 7.89. Take `COc1ccccc1C(O)C=C1C2CCN(CC2)C1C(c1ccccc1)c1ccccc1` (single isomer, unassigned) [1 (ISOMER B)]: the pIC50 (IC50 @ NK1R) was 6.89.

By pIC50 is commonly meant the negative decadic logarithm of the IC50, by convention in mol/L.

These data come from US5256671A, “Azabicyclic compounds, pharmaceutical compositions containing them and their use in therapy” (Merck Sharp & Dohme, Limited, priority 1992, dated 1993).
